This note sets out measurements from PubChem BioAssay (NCI).

Several values for one entry are separate records, joined by “and”; a condition that tells them apart may be missing. Identical values can stand only once.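 Cells were grown in 96-well plates and exposed to each compound for 48 hours at five concentrations; endpoints were interpolated linearly between bracketing concentrations, or set to the highest concentration if not reached. At the GI50, growth is halved. TGI denotes the concentration required for complete inhibition of growth.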

Some test systems named below: SK-MEL-28 melanoma; HOP-62 NSCLC; SK-MEL-2 melanoma; RPMI-8226 leukemia; DU-145 prostate; HL-60(TB) leukemia; A549 NSCLC; SF-268 CNS; NCI-H226 lung; HS 578T breast.
Common to all, as to test: NCI tumour cell line growth inhibition, 48 h

Regarding `COc1ccc2cc(-c3cnc4nonc4n3)ccc2c1`, the GI50 in the assay with SK-MEL-28 melanoma was over 100 µM; in the assay on HOP-62 NSCLC, 5.22 µM; with SK-MEL-2 melanoma, 3.66 µM; in the assay with RPMI-8226 leukemia, 0.685 µM; with DU-145 prostate it was 24.4 µM; in the assay on HL-60(TB) leukemia it was 0.803 µM. Further, the GI50 is 3.33 µM in the assay with A549 NSCLC, 8.59 µM with SF-268 CNS, 6.43 µM with NCI-H226 lung and 1.23 µM in the assay on HS 578T breast. For the same compound, the TGI in the assay on SK-MEL-28 melanoma was over 100 µM; with HOP-62 NSCLC, 64 µM; in the assay on SK-MEL-2 melanoma it was over 100 µM; with RPMI-8226 leukemia, 17.5 µM; with DU-145 prostate, over 100 µM; in the assay with HL-60(TB) leukemia it was 9.03 µM. Moreover, the TGI in the assay with A549 NSCLC, with SF-268 CNS, in the assay on NCI-H226 lung and with HS 578T breast was over 100 µM throughout.

For the compound `Cc1ccc(OP(=O)(Oc2ccc(C)cc2)N2C=Cc3ccccc3C2C#N)cc1` (stereo unspecified), the TGI with SK-MEL-28 melanoma, in the assay with HOP-62 NSCLC, with SK-MEL-2 melanoma, in the assay on RPMI-8226 leukemia, with DU-145 prostate and in the assay with HL-60(TB) leukemia was over 100 µM throughout. For the same compound, the TGI in the assay on A549 NSCLC, in the assay with SF-268 CNS, with NCI-H226 lung and with HS 578T breast was over 100 µM throughout.

On to `OC1CC2CCC(C1)N2CCCN1c2ccccc2Sc2ccc(Cl)cc21` (stereo unspecified), for which the TGI in the assay with SK-MEL-28 melanoma stood at 3.69 µM; in the assay on HOP-62 NSCLC, 10.4 µM; in the assay on SK-MEL-2 melanoma it was 3.29 µM; in the assay with RPMI-8226 leukemia, 4.42 µM; in the assay on DU-145 prostate it was 9.35 µM; with HL-60(TB) leukemia it was 6.37 µM. In addition, the TGI in the assay on A549 NSCLC is 7.45 µM; with SF-268 CNS, 6.23 µM; with NCI-H226 lung, 15.2 µM; in the assay on HS 578T breast it was 4.59 µM.

For `COc1ccccc1C#Cc1ccccc1C#Cc1ccc(OCCCCCCOc2ccccc2C#Cc2ccccc2C#Cc2ccccc2OC)cc1`, the GI50 in the assay on SK-MEL-28 melanoma, in the assay on HOP-62 NSCLC, in the assay on SK-MEL-2 melanoma, in the assay with RPMI-8226 leukemia, in the assay on DU-145 prostate and in the assay with HL-60(TB) leukemia was over 100 µM throughout. The GI50 in the assay on A549 NSCLC, in the assay with SF-268 CNS, in the assay with NCI-H226 lung and in the assay with HS 578T breast was over 100 µM each time. Moreover, the TGI in the assay with SK-MEL-28 melanoma, with HOP-62 NSCLC, in the assay on SK-MEL-2 melanoma, in the assay with RPMI-8226 leukemia, in the assay on DU-145 prostate and in the assay with HL-60(TB) leukemia was over 100 µM throughout. In addition, the TGI in the assay on A549 NSCLC, in the assay with SF-268 CNS, in the assay on NCI-H226 lung and in the assay with HS 578T breast was over 100 µM each time.

In the case of `COC[C@H](NC(=O)c1cnc(C)s1)C(=O)N[C@@H](COC)C(=O)N[C@@H](Cc1ccccc1)C(=O)[C@@]1(C)CO1`, the GI50 is 27.5 µM with SK-MEL-28 melanoma; 31.4 µM in the assay on HOP-62 NSCLC; 28.7 µM with SK-MEL-2 melanoma; 18.5 µM in the assay with RPMI-8226 leukemia; 37.1 µM in the assay with DU-145 prostate; 35 µM with HL-60(TB) leukemia. Also, the GI50 in the assay on A549 NSCLC is 42.9 µM; in the assay with SF-268 CNS it was 48.4 µM; in the assay on NCI-H226 lung it was 17.4 µM; in the assay with HS 578T breast, 26.5 µM. Besides, the TGI with SK-MEL-28 melanoma was over 95.1 µM; in the assay with HOP-62 NSCLC, over 95.4 µM; in the assay with SK-MEL-2 melanoma it was over 91.6 µM; in the assay on RPMI-8226 leukemia it was over 100 µM; in the assay on DU-145 prostate, over 100 µM; with HL-60(TB) leukemia, over 100 µM. The TGI with A549 NSCLC is over 100 µM; in the assay on SF-268 CNS, over 100 µM; with NCI-H226 lung it was 46.6 µM; in the assay with HS 578T breast, over 100 µM.

As to `O=c1cc(-c2ccc(F)cc2)[nH]c2ncccc12`, the TGI in the assay with SK-MEL-28 melanoma is over 100 µM; with HOP-62 NSCLC, over 100 µM; with SK-MEL-2 melanoma it was over 100 µM; with RPMI-8226 leukemia, over 100 µM; in the assay on DU-145 prostate it was over 100 µM; in the assay with HL-60(TB) leukemia, 34.1 µM. In addition, the TGI in the assay on A549 NSCLC, in the assay with SF-268 CNS, with NCI-H226 lung and in the assay with HS 578T breast was over 100 µM throughout. Further, the GI50 with HL-60(TB) leukemia was 12.9 µM.

For the compound `CC1SC(c2ccccc2Cl)N(NC(=O)C(O)c2ccccc2)C1=O` (stereo unspecified), the GI50 with SK-MEL-28 melanoma is over 100 µM; in the assay on HOP-62 NSCLC, over 100 µM; with SK-MEL-2 melanoma, over 100 µM; in the assay on RPMI-8226 leukemia, 45 µM; with DU-145 prostate it was over 100 µM; in the assay with HL-60(TB) leukemia, 82.4 µM. In addition, the GI50 was 52.3 µM in the assay with A549 NSCLC, over 100 µM in the assay on SF-268 CNS, over 100 µM in the assay with NCI-H226 lung and 85.3 µM with HS 578T breast. In addition, the TGI in the assay with SK-MEL-28 melanoma, in the assay on HOP-62 NSCLC, in the assay with SK-MEL-2 melanoma, in the assay on RPMI-8226 leukemia, with DU-145 prostate and in the assay with HL-60(TB) leukemia was over 100 µM throughout. The TGI in the assay on A549 NSCLC, in the assay with SF-268 CNS, with NCI-H226 lung and in the assay with HS 578T breast was over 100 µM throughout.

Take `Cn1ncc(Cl)c1-c1cc(C(=O)N[C@H](CN)Cc2cccc(F)c2)sc1Cl`: the GI50 in the assay on SK-MEL-28 melanoma was 1.43 µM and 1.7 µM; with HOP-62 NSCLC, 1.11 µM and 3.13 µM; in the assay with SK-MEL-2 melanoma it was 1.98 µM and 4.65 µM; in the assay on RPMI-8226 leukemia, 1.65 µM and 2.06 µM; in the assay with DU-145 prostate, 2.28 µM and 5.86 µM; in the assay on HL-60(TB) leukemia it was > 3.71 µM and 2.48 µM. Besides, the GI50 was 0.946 µM and 2.32 µM in the assay on A549 NSCLC; 1.72 µM and 3.64 µM in the assay with SF-268 CNS; > 4.48 µM and 11.6 µM with NCI-H226 lung; 0.2 µM and 0.339 µM in the assay on HS 578T breast. Further, the TGI is 4.85 µM and 9.04 µM with SK-MEL-28 melanoma; > 10 µM and 16.6 µM in the assay on HOP-62 NSCLC; > 6.11 µM and 12.3 µM with SK-MEL-2 melanoma; 5.8 µM and 6.11 µM in the assay on RPMI-8226 leukemia; > 10 µM and 19.4 µM with DU-145 prostate; > 6.27 µM and 8.32 µM in the assay on HL-60(TB) leukemia. The TGI is > 10 µM and 16 µM with A549 NSCLC; > 9.54 µM and 17.1 µM in the assay with SF-268 CNS; > 10 µM and 32.2 µM in the assay with NCI-H226 lung; 2.98 µM and 3.27 µM in the assay with HS 578T breast.

As to `COc1cnc2c(c1)C(=O)c1c-2n(CCCN2CCCC2)c(=O)c2cc([N+](=O)[O-])ccc12`, the GI50 in the assay with SK-MEL-28 melanoma was 10.6 µM; in the assay with HOP-62 NSCLC, under 0.01 µM; in the assay with SK-MEL-2 melanoma it was 1.01 µM; with RPMI-8226 leukemia, 0.0374 µM; in the assay with DU-145 prostate, 0.0186 µM; in the assay with HL-60(TB) leukemia, 0.0299 µM. Also, the GI50 in the assay with A549 NSCLC was 0.0463 µM; in the assay with SF-268 CNS, 0.0191 µM; in the assay on NCI-H226 lung, 0.104 µM; in the assay on HS 578T breast, 1.91 µM. In addition, the TGI in the assay with SK-MEL-28 melanoma was 27.9 µM; in the assay on HOP-62 NSCLC, 1.24 µM; with SK-MEL-2 melanoma it was 15.9 µM; in the assay on RPMI-8226 leukemia, 1.11 µM; with DU-145 prostate, 1.79 µM; in the assay on HL-60(TB) leukemia it was 1.06 µM. The TGI with A549 NSCLC is 1.15 µM; in the assay with SF-268 CNS it was 12.8 µM; in the assay with NCI-H226 lung, 0.715 µM; with HS 578T breast, 23.2 µM.
